From patent publication US20180290977A1, “KDM4 INHIBITORS” (Albert-Ludwigs-University Freiburg, priority 2017, published 2018)
Like-named read-outs stand apart in the source and are kept apart here.

What was measured:
KDM4B = molecular target: T1, KDM4B (Homo sapiens, UniProt O94953); test: KDM demethylase inhibition (IC50); format: biochemical
T1 sequence (O94953 1-1096): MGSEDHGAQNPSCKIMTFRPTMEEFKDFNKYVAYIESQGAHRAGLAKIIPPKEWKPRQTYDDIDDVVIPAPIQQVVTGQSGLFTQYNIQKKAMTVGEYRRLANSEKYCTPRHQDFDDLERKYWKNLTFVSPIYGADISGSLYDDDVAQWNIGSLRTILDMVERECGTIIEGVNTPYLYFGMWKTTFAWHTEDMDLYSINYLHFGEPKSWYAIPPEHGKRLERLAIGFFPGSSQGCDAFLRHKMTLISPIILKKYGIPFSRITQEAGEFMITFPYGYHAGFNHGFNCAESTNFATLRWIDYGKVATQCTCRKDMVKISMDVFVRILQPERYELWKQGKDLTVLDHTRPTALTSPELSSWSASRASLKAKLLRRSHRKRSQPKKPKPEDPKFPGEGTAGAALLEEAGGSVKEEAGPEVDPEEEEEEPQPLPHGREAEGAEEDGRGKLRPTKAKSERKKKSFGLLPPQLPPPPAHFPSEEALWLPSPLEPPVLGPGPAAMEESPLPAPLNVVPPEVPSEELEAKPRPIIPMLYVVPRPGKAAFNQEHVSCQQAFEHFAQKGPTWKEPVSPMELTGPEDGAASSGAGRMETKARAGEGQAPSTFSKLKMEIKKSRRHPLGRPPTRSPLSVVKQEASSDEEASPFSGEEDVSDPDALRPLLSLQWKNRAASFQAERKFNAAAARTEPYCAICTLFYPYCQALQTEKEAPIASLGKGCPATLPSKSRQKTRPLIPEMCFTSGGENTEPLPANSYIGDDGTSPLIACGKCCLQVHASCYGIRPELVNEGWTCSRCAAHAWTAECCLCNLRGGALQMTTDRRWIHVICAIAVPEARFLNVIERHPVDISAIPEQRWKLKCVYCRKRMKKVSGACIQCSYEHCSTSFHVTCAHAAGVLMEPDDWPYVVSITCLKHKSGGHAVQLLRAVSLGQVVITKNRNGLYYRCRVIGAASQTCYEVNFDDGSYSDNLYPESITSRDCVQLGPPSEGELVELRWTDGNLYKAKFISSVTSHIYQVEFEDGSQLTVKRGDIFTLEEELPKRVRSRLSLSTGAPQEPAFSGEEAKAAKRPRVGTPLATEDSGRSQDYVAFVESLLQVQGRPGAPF

KDM2A = molecular target: T2, KDM2A (Homo sapiens, UniProt Q9Y2K7); test: KDM demethylase inhibition (IC50); format: biochemical
T2 sequence (Q9Y2K7 1-1162): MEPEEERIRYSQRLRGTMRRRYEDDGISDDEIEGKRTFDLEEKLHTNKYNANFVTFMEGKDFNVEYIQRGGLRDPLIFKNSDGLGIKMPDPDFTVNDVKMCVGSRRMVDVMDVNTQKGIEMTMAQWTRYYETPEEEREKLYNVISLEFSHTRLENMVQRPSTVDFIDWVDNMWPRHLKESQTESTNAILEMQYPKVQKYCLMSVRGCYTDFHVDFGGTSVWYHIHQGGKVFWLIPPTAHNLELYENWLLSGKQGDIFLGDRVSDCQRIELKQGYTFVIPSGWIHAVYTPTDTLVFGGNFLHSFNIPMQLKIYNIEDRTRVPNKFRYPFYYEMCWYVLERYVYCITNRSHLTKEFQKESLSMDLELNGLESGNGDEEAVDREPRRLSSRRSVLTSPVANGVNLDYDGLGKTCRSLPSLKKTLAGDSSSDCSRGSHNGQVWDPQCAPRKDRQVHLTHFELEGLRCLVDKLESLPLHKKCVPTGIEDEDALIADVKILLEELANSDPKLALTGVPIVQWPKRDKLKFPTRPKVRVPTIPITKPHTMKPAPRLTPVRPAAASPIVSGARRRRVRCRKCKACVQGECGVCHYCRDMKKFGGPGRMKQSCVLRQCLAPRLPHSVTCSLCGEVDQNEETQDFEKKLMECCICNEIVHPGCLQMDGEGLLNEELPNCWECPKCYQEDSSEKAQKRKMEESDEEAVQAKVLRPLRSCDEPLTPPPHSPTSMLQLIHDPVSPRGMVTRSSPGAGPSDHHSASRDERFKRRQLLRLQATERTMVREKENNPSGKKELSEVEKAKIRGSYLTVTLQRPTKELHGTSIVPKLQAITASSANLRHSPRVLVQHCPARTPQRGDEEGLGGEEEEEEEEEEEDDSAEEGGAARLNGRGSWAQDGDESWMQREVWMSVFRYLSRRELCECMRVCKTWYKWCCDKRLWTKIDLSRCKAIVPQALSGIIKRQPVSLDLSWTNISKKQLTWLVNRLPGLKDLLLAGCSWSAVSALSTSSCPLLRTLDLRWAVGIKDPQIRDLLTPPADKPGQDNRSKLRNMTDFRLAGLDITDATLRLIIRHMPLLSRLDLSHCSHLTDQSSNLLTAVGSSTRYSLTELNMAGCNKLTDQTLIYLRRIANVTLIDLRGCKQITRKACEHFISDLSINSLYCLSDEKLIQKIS

KDM5B = KDM5B (Homo sapiens, UniProt Q9UGL1); test: KDM demethylase inhibition (IC50); format: biochemical
KDM5B, sequence (Q9UGL1 whole entry): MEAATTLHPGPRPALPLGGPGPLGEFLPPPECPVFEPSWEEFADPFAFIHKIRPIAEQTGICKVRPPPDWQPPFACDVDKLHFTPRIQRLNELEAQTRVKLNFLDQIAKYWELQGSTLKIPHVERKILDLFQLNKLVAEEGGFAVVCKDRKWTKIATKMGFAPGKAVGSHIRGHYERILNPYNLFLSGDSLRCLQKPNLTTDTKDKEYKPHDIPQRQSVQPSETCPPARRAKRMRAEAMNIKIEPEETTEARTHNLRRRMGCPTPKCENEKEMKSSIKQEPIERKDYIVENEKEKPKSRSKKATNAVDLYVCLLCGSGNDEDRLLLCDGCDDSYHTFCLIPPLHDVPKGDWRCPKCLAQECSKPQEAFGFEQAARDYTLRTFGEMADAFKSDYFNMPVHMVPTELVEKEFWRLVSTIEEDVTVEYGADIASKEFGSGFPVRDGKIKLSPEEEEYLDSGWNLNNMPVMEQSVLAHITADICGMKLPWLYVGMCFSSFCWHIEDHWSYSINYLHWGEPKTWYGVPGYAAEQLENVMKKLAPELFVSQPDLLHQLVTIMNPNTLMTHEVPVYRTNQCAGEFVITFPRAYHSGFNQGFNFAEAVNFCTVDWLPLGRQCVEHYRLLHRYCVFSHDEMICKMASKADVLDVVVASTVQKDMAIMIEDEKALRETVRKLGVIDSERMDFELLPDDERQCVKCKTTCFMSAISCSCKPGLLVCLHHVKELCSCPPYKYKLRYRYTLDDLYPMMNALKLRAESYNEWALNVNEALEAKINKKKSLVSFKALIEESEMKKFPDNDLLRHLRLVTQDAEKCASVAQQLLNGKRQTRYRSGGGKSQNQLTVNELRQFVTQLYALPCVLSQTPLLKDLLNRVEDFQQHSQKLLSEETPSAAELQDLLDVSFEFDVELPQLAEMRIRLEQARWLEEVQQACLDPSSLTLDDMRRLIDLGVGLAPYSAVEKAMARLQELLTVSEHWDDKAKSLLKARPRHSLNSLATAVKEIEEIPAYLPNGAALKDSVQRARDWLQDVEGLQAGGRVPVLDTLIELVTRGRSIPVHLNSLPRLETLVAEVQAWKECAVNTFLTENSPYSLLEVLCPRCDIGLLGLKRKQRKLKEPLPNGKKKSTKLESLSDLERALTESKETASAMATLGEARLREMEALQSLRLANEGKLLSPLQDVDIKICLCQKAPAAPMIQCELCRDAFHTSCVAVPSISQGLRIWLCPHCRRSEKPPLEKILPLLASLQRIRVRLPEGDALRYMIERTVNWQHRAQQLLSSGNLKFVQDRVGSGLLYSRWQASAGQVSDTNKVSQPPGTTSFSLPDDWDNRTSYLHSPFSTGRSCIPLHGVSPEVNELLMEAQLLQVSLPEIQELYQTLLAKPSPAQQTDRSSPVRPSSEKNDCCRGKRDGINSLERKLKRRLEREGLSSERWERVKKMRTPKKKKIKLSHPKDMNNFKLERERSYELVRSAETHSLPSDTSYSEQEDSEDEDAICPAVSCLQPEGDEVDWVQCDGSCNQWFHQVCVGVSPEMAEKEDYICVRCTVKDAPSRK

KDM6B = KDM6B (Homo sapiens, UniProt O15054); test: KDM demethylase inhibition (IC50); format: biochemical
KDM6B, sequence (O15054 whole entry): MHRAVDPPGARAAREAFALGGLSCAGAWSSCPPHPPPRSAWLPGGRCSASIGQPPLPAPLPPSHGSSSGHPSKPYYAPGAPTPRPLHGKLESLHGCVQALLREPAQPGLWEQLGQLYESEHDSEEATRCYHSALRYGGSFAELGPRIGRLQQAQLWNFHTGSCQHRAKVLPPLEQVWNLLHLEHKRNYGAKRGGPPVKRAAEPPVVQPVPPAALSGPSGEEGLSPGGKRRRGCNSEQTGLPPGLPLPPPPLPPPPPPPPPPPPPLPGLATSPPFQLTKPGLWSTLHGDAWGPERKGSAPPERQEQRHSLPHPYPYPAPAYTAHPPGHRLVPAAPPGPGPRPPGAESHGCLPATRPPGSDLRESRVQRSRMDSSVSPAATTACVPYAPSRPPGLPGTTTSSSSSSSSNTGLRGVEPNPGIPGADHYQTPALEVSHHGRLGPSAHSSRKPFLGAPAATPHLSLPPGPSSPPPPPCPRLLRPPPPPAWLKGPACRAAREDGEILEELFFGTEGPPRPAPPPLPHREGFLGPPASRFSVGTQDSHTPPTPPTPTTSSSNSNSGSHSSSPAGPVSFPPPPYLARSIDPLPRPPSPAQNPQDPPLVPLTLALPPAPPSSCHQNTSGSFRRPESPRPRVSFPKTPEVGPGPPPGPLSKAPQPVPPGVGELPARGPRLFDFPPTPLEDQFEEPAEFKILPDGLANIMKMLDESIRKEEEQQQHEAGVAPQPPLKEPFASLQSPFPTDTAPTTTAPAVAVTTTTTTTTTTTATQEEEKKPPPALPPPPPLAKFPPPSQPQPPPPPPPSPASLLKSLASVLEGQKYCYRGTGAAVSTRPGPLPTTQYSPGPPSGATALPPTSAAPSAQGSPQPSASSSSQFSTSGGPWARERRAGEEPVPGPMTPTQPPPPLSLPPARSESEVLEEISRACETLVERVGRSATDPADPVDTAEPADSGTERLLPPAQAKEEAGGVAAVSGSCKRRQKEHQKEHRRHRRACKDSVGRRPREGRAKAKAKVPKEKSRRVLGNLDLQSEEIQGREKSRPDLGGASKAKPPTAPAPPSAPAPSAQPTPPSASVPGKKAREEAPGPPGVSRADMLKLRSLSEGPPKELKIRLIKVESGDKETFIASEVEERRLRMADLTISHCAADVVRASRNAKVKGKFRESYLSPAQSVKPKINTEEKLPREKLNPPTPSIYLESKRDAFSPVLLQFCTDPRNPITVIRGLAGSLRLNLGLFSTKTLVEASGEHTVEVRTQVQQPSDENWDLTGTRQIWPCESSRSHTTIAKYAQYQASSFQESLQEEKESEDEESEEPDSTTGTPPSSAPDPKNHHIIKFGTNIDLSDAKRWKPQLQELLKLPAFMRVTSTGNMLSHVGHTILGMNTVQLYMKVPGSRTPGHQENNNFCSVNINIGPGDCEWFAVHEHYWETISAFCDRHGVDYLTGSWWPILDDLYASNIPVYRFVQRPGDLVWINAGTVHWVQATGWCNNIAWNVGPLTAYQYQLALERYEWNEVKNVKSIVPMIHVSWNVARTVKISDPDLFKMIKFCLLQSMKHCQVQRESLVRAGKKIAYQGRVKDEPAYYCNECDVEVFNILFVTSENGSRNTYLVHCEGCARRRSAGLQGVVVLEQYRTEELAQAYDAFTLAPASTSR

[1] = Pharmacokinetic study iv/po; format: in vivo; conditions: Dose iv/po 5/10 mg/kg

CN(c1ccccc1)c1ccc2c(c1)CCC[C@H]2CNc1cnccc1C(=O)O [Compound I, 3-({[(1R)-6-[methyl(phenyl)amino]-1,2,3,4-tetrahydronaphthalen-1-yl]methyl}amino)pyridine-4-carboxylic Acid]
IC50 (KDM4B; read-out: Compound I IC50): 56 nM
IC50 (KDM4B; read-out: IC50, demethylase activity): < 105 nM
IC50 (KDM2A): > 10000 nM
effect on the demethylase activity of KDM5B (KDM5B): weak effect
IC50 (KDM5B; read-out: Compound I IC50, KDM5B): 750 nM
IC50 (KDM6B): > 10000 nM
po 1/2 [1]: 2.57 h
Vd ([1]; plasma, 5 mg/kg, read-out: Vz (mL/kg), apparent volume of distribution during terminal phase): 666 mL/kg
AUC ([1]; plasma): 10400 ng·h/mL
